Test results from patent US7067625B1, “Isolated TWIK-1 potassium channel proteins” (Centre National de la Recherche Scientifique - CNRS, priority 1996, dated 2006).

How the values were obtained:
TWIK-1 [1] = biological target: T1, TWIK-1 (Homo sapiens, UniProt O00180); assay: Imposed voltage (two-microelectrode voltage-clamp) recording of TWIK-1 K+ currents in Xenopus oocytes injected with TWIK-1 cRNA; type: cell-based; parameters: expressed in transfected cells; host or cells: Xenopus laevis oocytes injected with cRNA transcribed from pEXO-TWIK-1; settings: for sensitivity of the TWIK-1 channel to K+ channel openers: 100 μM
T1 sequence (O00180 1-336): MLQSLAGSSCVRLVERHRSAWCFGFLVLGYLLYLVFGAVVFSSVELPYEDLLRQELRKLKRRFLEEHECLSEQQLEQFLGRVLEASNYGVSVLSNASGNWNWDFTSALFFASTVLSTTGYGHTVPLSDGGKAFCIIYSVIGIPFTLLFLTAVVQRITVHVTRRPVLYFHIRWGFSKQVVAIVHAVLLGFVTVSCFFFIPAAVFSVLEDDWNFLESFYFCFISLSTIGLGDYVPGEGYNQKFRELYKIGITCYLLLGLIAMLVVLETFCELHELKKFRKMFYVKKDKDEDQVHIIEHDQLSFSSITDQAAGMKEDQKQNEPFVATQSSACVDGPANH
Method: A complementary RNA (cRNA) was transcribed of this construction and injected in the oocytes of X. laevis.
The TWIK-1 coding sequence was amplified using a low-error rate DNA polymerase (Pwo DNA pol, Boehringer) and subcloned in the plasmid pEXOii so as to yield pEXO-TWIK-1. Mutations were performed using the whole plasmid pEXO-TWIK-1 with a highly reliable PCR extension kit (Boehringer) and two adjacent primers. […] The product of the PCR was linearized by the enzyme BamHI and the cRNA were synthesized using a T7 RNA polymerase (Stratagene).
In a 0.3-ml perfusion chamber, a single oocyte was impaled on two standard glass microelectrodes (0.5–2.0 MW) charged with 3 M KCl and maintained under voltage-clamp with a Dagan TEV200 amplifier. […] Stimulation of the preparation, data acquisition and analyses were carried out with the pClamp program (Axon Instruments, USA).

TWIK-1 [2] = biological target: T1, TWIK-1; assay: Single channel patch-clamp recordings (attached and inside-out patch) of TWIK-1 in oocytes
Method: The pipettes were filled with a strong K^+ solution (40 mM KCl, 100 mM of potassium methane sulfonate, 1.8 mM CaCl2, 2 m M MgCl2 and 5 mM HEPES adjusted to pH 7.4 with KOH). 100 μM of GdCl3 was added to the pipette solution to inhibit the action of the activated channels. The inside-out patches were perfused with a solution containing 140 m M KCl, 10 mM CaCl2, 5 mM HEPES adjusted to pH 7.2 with KOH and 5 mM EGTA added daily. The single channel signals were filtered at 3.5 kHz and analyzed with the Biopatch program (Bio-Logic, Grenoble, France).

[3] = read-out: inhibition of TWIK-1 currents

## Nc1ncnc2c1nc(Cl)n2[C@@H]1O[C@@H]2COP(=O)(O)O[C@H]2[C@H]1O [8-Cl-AMPc]
TWIK-1 [1]; 300 μM
  effect on the activity of TWIK-1: does not affect

## CCCCc1oc2ccccc2c1C(=O)c1cc(I)c(OCCN(CC)CC)c(I)c1 [amiodarone]
TWIK-1 [1]; [3]
  inhibition at 100 µM: < 10%

## CC1(C)Oc2ccc(C#N)cc2C(N2CCCC2=O)C1O (stereo not drawn) [cromakaline]
TWIK-1 [1]
  sensitivity of the TWIK-1 channel to K+ channel openers: not sensitive

## CCCCCCCCCCCCCC(=O)O[C@@H]1[C@@H](C)[C@@]2(O)[C@@H](C=C(CO)C[C@]3(O)C(=O)C(C)=C[C@@H]23)[C@@H]2C(C)(C)[C@]12OC(C)=O [PMA, phorbol-12 myristate acetate]
TWIK-1 [2]; attached patch, 30 nM PMA, +60 mV
  channels revealed in an attached patch initially expressing a single channel: at least five channels
TWIK-1 [1]; 30 nM, perfusion 10 minutes
  effect on the TWIK-1 currents: increases the TWIK-1 currents

## CC(C)C[C@@H]1NC(=O)[C@H](C)NC(=O)[C@H]([C@@H](C)O)NC(=O)[C@H](CCC(=O)O)NC(=O)[C@@H]2CCCN2C(=O)[C@H](C)NC(=O)[C@H](CCCCN)NC(=O)[C@@H]2CSSC[C@@H](C(=O)N[C@@H](CCC(N)=O)C(=O)N[C@@H](CCC(N)=O)C(=O)N[C@@H](Cc3cnc[nH]3)C(N)=O)NC(=O)[C@H](CCCNC(=N)N)NC(=O)[C@H](CCCNC(=N)N)NC(=O)[C@H](C)NC(=O)[C@H](CSSC[C@H](N)C(=O)N[C@@H](CC(N)=O)C(=O)N2)NC1=O [apamin]
TWIK-1 [1]; [3]
  inhibition at 0.3 µM: < 10%

## Nc1ncnc2c1ncn2[C@@H]1O[C@H](COP(=O)(O)OP(=O)(O)OP(=O)(O)O)[C@@H](O)[C@H]1O [ATP]
TWIK-1 [2]; excised patch perfused with 10 mM
  effect on the activity of the TWIK-1 channel: does not induce any effect

## Nc1ccncc1 [4-aminopyridine]
TWIK-1 [1]; 1 mM
  inhibition at 1000 µM: < 10%

## [Ba+2] [Ba^2+]
TWIK-1 [1]; Xenopus oocytes, +30 mV depolarization from HP -80 mV, read-out: IC50 of inhibition of the K+ currents of TWIK-1
  IC50: 100 µM

## CCCCCCC[N+](CC)(CC)CCCCc1ccc(Cl)cc1 [clofilium]
TWIK-1 [1]
  inhibition at 30 µM: < 10%

## CNc1ccc2oc(C[C@H]3O[C@@]4(CC[C@H]3C)O[C@H]([C@H](C)C(=O)c3ccc[nH]3)[C@H](C)C[C@H]4C)nc2c1C(=O)O [A23187]
TWIK-1 [1]; 1 μM, elevation of cytoplasmic Ca2+
  effect on the properties of the TWIK-1 channel: without effect

## O=[N+]([O-])c1ccc(O)c([N+](=O)[O-])c1 [DNP, dinitrophenol]
TWIK-1 [1]; intracellular acidification by DNP, 1 mM
  reduction in the TWIK-1 currents (of control amplitude): 80%

## COc1ccc(Cl)cc1C(=O)NCCc1ccc(S(=O)(=O)NC(=O)NC2CCCCC2)cc1 [glibenclamide]
TWIK-1 [1]
  inhibition at 30 µM: < 10%

## CC(N/C(=N\C#N)Nc1ccncc1)C(C)(C)C (stereo not drawn) [pinacidil]
TWIK-1 [1]
  sensitivity of the TWIK-1 channel to K+ channel openers: not sensitive

## O=C=O [CO2]
TWIK-1 [2]; after excision of the patch, bubbling of CO2
  sensitivity of channel activity to acidification of the internal solution: insensitive
TWIK-1 [1]; intracellular acidification by superfusion with CO2-enriched solution
  reduction in the TWIK-1 currents (of control amplitude): greater than 95%

## CCCCCCCCCC(=O)O[C@@H]1[C@@H](C)[C@@]2(O)[C@@H](C=C(CO)C[C@@]3(O)C(=O)C(C)=C[C@@H]23)[C@@H]2C(C)(C)[C@]12OC(=O)CCCCCCCCC [PDA, 4α-phorbol-12, 13 didecanoate]
TWIK-1 [1]; 1 μM
  effect on the TWIK-1 currents: has no effect

## CC[N+](CC)(CC)CC [TEA]
TWIK-1 [1]; 20 mM
  inhibition of TWIK-1 currents: 30%
